According to ChEMBL document CHEMBL5252559, “Altersteroids A-D, 9,11-Secosteroid-Derived γ-Lactones from an Alternaria sp” (J Nat Prod, 2023):

How the values were obtained:
HCT-116 = assay: Cytotoxicity against human HCT-116 cells assessed as inhibition of cell growth incubated for 72 hrs by MTT assay; assay type: functional, cell-based; details: HCT-116, 72 h
A549 [1] = assay: Cytotoxicity against human A549 cells assessed as inhibition of cell growth incubated for 72 hrs by MTT assay; assay type: functional, cell-based; details: A549, 72 h
[2] = Cytotoxicity against cisplatin-sensitive mouse MB49 cells assessed as inhibition of cell growth incubated for 72 hrs by MTT assay; assay type: functional, cell-based; details: MB49, 72 h
[3] = Cytotoxicity against cisplatin-resistant mouse MB49 cells assessed as inhibition of cell growth incubated for 72 hrs by MTT assay; assay type: functional, cell-based; details: MB49, 72 h
A549 [4] = assay: Induction of apoptosis in human A549 cells assessed as caspase 3/7 positive cells at 31.6 uM incubated for 48 hrs by […] staining and caspase 3/7 reagent based analysis relative to control; assay type: functional
A549 [5] = assay: Induction of apoptosis in human A549 cells assessed as caspase 3/7 positive cells at 100 uM incubated for 48 hrs by […] staining and caspase 3/7 reagent based analysis relative to control; assay type: functional
[6] = Induction of caspase3/7-mediated apoptosis in human A549 cells assessed as increase in mean fluorescence intensity at 10 to 100 uM incubated for 48 hrs; assay type: functional; details: dose 10-100 µM

Structure (SMILES) | IC50 (HCT-116) [µM] | IC50 (A549 [1]) [µM] | IC50 [2] [µM] | IC50 [3] [µM] | Activity (A549 [4]) [%] | Activity (A549 [5]) [%] | Activity [6]
CC(C)[C@@H](C)/C=C/[C@@H](C)[C@H]1CC[C@]2(C3=CC(=O)[C@@H]4C[C@H](O)CC[C@]4(C)C3=O)OC(=O)C[C@]12C | 57.8 | > 100 | > 100 | > 100 |  |  | 
CC(C)[C@@H](C)/C=C/[C@@H](C)[C@H]1CC[C@]2(C3=CC(=O)C4=CC(=O)CC[C@]4(C)C3=O)OC(=O)C[C@]12C | 45 | 54.3 | 53.6 | 54.3 |  |  | 
CC(C)[C@@H](C)/C=C/[C@@H](C)[C@H]1CC[C@]2(C3=C[C@H](O)[C@@H]4C[C@H](O)CC[C@]4(C)C3=O)OC(=O)C[C@]12C | 14.6 | 19.7 | 34.1 | 14.2 |  |  | 
CC(C)[C@@H](C)/C=C/[C@@H](C)[C@H]1CC[C@]2(C3=C[C@H](O)C4=C[C@@H](O)CC[C@]4(C)C3=O)OC(=O)C[C@]12C | 4.8 | 5.3 | 12.7 | 12.7 | 21.1 | 81.9 | 2000
